Test results taken from publication PMC5515844, “A new Prenylated Flavonoid induces G0/G1 arrest and apoptosis through p38/JNK MAPK pathways in Human Hepatocellular Carcinoma cells” (Scientific Reports, 2017).

Legend:
SH-SY5Y = assay: MTT cytotoxicity assay; type: cell-based; conditions: Homo sapiens, 48 h, mean ± SD
Protocol: (§1) HepG2 and Hep3B (human hepatoma cells), Bcap37 and MCF-7 (human breast cancer cells), TE-1 (human esophageal cancer cells), A549 (human lung carcinoma cells), U251 and U87 (human glioma cells), were cultured in Dulbecco’s modified Eagle’s medium (DMEM) supplemented with 10% fetal bovine serum (FBS) and 1% penicillin/streptomycin (10000 U/mL penicillin, 10000 μg/ml streptomycin). SH-SY5Y (human neuroblastoma cells), LO2 (human normal liver cell) were grown in RPMI 1640 containing 10% FBS and 100 µg/ml penicillin, 100 µg/ml streptomycin. HepG2, Hep3B, MCF-7, TE-1, A549, U87, U251 and SHSY5Y cells were obtained from the American Type Culture Collection (Manassas, VA, USA). Bcap37 and LO2 cells were purchased from the Cell Bank of Chinese Academy of Sciences (Shanghai, China). All cells were incubated in a humidified atmosphere containing 5% CO2 at 37 °C.
(§2) Cells seeded in 96-well plates with 5 × 10^3 cells/well were adhered overnight and incubated with vehicle control (DMSO) or diverse concentrations of compounds for 48 h. After treatment, 20 μL of MTT (5 mg/mL) was added to each well and incubated for another 4 h at 37 °C. Then, 150 μL of DMSO/well was appended after removed the supernatant to dissolve the formed purple formazan crystals and the color absorbance was measured at 490 nm using a microplate reader (Molecular Devices, Thermo, CA, USA). The inhibition rate (%) was calculated as (A490(control) − A490(drug groups))/(A490(control) − A490(blank)) × 100 and the value of IC50 (the concentration that caused 50% inhibition of cell viability) was determined using SPSS 20.0. This experiment was measured in triplicate, independently.

Bcap37 = assay: MTT cytotoxicity assay; type: cell-based; conditions: Homo sapiens, 48 h, mean ± SD
Protocol: as §1, §2

U251 = assay: MTT cytotoxicity assay; type: cell-based; conditions: Homo sapiens, U-251, 48 h, mean ± SD
Protocol: as §1, §2

A549 = assay: MTT cytotoxicity assay; type: cell-based; conditions: Homo sapiens, 48 h, mean ± SD
Protocol: as §1, §2

U87 = assay: MTT cytotoxicity assay; type: cell-based; conditions: Homo sapiens, U-87 MG, 48 h, mean ± SD
Protocol: as §1, §2

Hep3B cells [1] = assay: Cell cycle analysis, PI staining, flow cytometry; type: cell-based, human; conditions: different concentrations, 24 and 48 h
Protocol: (§3) Flow cytometry was used to determine the cell cycle effects of daphnegiravone D on Hep3B and HepG2 cells. Cells were seeded (2 × 10^5 cells/well) into six-well plates with complete DMEM medium for 24 h and treated with various concentrations of daphnegiravone D for 24 and 48 h. Cells were harvested after treatment, washed with cold PBS, and fixed with 70% ethanol at 4 °C overnight. Then, resuspended cell pellets in staining buffer, blended in RNase A and PI staining for 30 min at 37 °C. Cell cycle phase was investigated using a FACSCalibur flow cytometer (BD Biosciences, New Jersey, USA). The results were analyzed with FlowJo software (v7.6.5, Tree Star, Inc.).

HepG2 cells [2] = assay: Cell cycle analysis, PI staining, flow cytometry; type: cell-based, human; conditions: HepG2, different concentrations, 24 and 48 h
Protocol: as §3

LO2 = assay: MTT cytotoxicity assay, normal hepatic cells; type: cell-based; conditions: mean ± SD
Protocol: as §1, §2

HepG2 = assay: MTT cytotoxicity assay; type: cell-based, human; conditions: Homo sapiens, HepG2; MTT, 48 h, mean ± SD
Protocol: as §1, §2

Hep3B = assay: MTT cytotoxicity assay; type: cell-based, human; conditions: Homo sapiens, 48 h, mean ± SD
Protocol: as §1, §2

[3] = Gross evaluation and pathological study in xenograft nude mice; type: in vivo, BALB/c nude mice
Protocol: (§4) All of the animal studies and procedures were conducted in accordance with the approval and guidelines of the Shenyang Pharmaceutical University Institutional Animal Care and Use Committee (permission number: SCXK (Jing) 2014-0004). Male BALB/c nude mice at the age of six weeks were obtained from Beijing HFK Bioscience Co., Ltd (Beijing, China). Hep3B cells (1 × 10^5 cells) were implanted subcutaneously into the right backsides of each nude mouse. After 12 days, when the tumor size reached about 100 mm^3, the mice were randomly divided into three groups (n = 6) and intraperitoneally injected with vehicle control or daphnegiravone D (5 and 10 mg/kg body weight) every two days for two weeks. The body weight and tumor sizes were measured every day, and the tumor volume was determined by caliper measurements and calculated by the formula: 0.5236 × L × W ^2, where L is the long axis and W is the short axis of the tumor. The experiment was terminated when the tumors volume of the control group reached about 3000 mm^3. The mice were sacrificed, and the tumors, hearts, livers, spleens, lungs and kidneys were excised immediately to evaluate the antitumor activity and toxicity of daphnegiravone D.
Mouse major organs (heart, liver, spleen, lung, kidney) and tumors were isolated and fixed in 10% buffered formalin for 3 days and embedded in paraffin. […]

Hep3B cells [4] = assay: Annexin V-FITC/PI apoptosis detection; type: cell-based, human; conditions: 0.5–2.0 μM, 48 h, dose-dependent
Protocol: (§5) An annexin-V FITC apoptosis detection Kit was used to determine the apoptosis effect induced by daphnegiravone D according to the manufacturer’s instructions (BD Biosciences, CA, USA). Briefly, Hep3B and HepG2 cells were plated in 6-well plates (2 × 10^5/well) and incubated overnight. Cells were harvested and washed with PBS by centrifugation after treatment with different concentrations of daphnegiravone D for 48 h. Then, cells were resuspended in 500 μL binding buffer and staining with Annexin V-FITC (10 μL) and propidium iodide (5 μL) at room temperature in the dark for 10 min. Thereafter, cells were analyzed by flow cytometry within 1 h after staining. 10,000 cells were acquired for each sample and data were analyzed by Cell Quest Pro software (BD Biosciences, New Jersey, USA).

HepG2 cells [5] = assay: Annexin V-FITC/PI apoptosis detection; type: cell-based, human; conditions: HepG2, 2.5–10.0 μM, 48 h, dose-dependent
Protocol: as §5

Hep3B xenografts = assay: In vivo antitumor activity, nude mouse xenograft model; design: species or system BALB/c nude mice; conditions: for inhibition rate of the tumor volume: vs vehicle group
Protocol: as §4
Mouse major organs (heart, liver, spleen, lung, kidney) and tumors were isolated and fixed in 10% buffered formalin for 3 days and embedded in paraffin. The tissues were sectioned at a thickness of 4 μm, and the obtained organ sections were prepared orderly by dewaxing, staining in hematoxylin and eosin-phloxine solution, then dehydrated and mounted with neutral resin. Subsequently, the tumor paraffin sections were deparaffinized, rehydrated, and subjected to antigen retrieval. Immunostaining was performed by the streptavidin-peroxidase (S-P) method (Ultra-sensitive; MaiXin, Fuzhou, China). The primary antibody was mouse anti-Ki67 monoclonal antibody (Maixin Biotech, Fuzhou, China). The peroxidase reaction was developed with 3,3-diaminobenzidine (Maixin Biotech, Fuzhou, China). Finally, the sections tissue morphology were observed using an OLYMPUS microscope.

[6] = 5 and 10 mg/kg i.p. every two days for two weeks

histopathology of heart, liver, spleen, lungs and kidneys ([3]; 5 mg/kg and 10 mg/kg, H&E, vs vehicle control group): no obvious differences
SMILES: COc1c(-c2ccc(O)c(CC=C(C)C)c2)oc2c(CC=C(C)C)c(O)cc(O)c2c1=O [Compound 1, daphnegiravone D]
IC50 (SH-SY5Y): 39.1 ± 3.67 µM
IC50 (Bcap37): 28 ± 1.94 µM
IC50 (U251): 33.4 ± 3.03 µM
IC50 (A549): 21.8 ± 1.34 µM
IC50 (U87): 35.1 ± 3.97 µM
cell cycle arrest (Hep3B cells [1]): significantly arrested at G0/G1 phase
cell cycle arrest (HepG2 cells [2]): significantly arrested at G0/G1 phase
IC50 (LO2; 48 h, normal human hepatic cells): 45.1 ± 3.09 µM
IC50 (LO2; Homo sapiens, L02, 48 h): ~45 µM
IC50 (HepG2): 9.89 ± 1.02 µM
IC50 (Hep3B): 1.63 ± 0.56 µM
body weight of the mice [3, 6]: did not affect the body weight
AV+PI− and AV+PI+ cells (apoptosis) (Hep3B cells [4]): increased dramatically
AV+PI− and AV+PI+ cells (apoptosis) (HepG2 cells [5]): increased dramatically
inhibition rate of the tumor volume (Hep3B xenografts; 5 mg/kg i.p. every two days for two weeks): approximately 35.9%
inhibition rate of the tumor volume (Hep3B xenografts; 10 mg/kg i.p. every two days for two weeks): ~50.3%
tumor volume and tumor weight (Hep3B xenografts; [6]): markedly decreased
Ki-67 labeling index (proliferation capacity of tumor) (Hep3B xenografts; immunohistochemistry, vs vehicle control): lower proliferation capacity
